Where two headings read alike, the source gives them in different places.
Target: recombinant human SAE enzyme (Homo sapiens (Human), UniProt Q9UBT2)
Experiment: SAE HTRF enzyme assay
Type: biochemical
Details: for inhibition at 0.111 µM: read-out: Percent Inhibition
In short: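 Sumoylation of Ubc9-GST by SAE was followed at low ATP (0.5 μM), pH 7.5, 24° C. for 105 min. Product was detected by HTRF with antibody pairs against Flag and GST tags.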

[1] = SAE inhibition at compound concentration 0.111 μM
[2] = SAE inhibition, class symbols, legend in nM

Chain of recombinant human SAE enzyme (Q9UBT2 whole entry): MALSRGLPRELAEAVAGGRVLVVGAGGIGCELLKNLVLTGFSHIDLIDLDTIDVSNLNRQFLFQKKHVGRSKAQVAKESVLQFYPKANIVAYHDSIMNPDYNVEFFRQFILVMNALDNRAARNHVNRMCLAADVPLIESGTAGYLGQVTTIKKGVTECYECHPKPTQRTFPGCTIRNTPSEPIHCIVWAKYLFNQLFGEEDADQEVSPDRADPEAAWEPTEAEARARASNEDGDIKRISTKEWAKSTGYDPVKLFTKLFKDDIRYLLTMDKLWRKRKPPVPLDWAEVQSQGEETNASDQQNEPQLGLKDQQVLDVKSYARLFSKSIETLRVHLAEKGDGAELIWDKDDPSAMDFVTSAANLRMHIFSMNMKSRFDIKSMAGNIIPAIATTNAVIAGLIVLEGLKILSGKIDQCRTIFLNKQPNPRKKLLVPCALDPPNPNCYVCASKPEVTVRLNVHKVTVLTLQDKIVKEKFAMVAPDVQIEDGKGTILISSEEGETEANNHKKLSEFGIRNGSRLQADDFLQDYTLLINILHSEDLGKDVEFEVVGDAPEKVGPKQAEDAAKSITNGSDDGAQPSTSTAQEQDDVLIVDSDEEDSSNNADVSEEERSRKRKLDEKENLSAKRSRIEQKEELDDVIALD
Chain of recombinant human SAE enzyme (Q9UBE0 whole entry partner): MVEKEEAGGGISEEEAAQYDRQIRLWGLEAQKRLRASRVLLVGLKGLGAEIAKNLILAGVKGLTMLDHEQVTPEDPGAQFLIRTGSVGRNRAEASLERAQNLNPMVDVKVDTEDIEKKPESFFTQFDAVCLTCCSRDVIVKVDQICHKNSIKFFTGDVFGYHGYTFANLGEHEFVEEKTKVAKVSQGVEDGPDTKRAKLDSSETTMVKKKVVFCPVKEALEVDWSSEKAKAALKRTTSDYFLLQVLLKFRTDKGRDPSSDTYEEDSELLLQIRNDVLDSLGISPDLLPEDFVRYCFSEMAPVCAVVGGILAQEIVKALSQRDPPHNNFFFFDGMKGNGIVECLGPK

Row | SMILES | Percent Inhibition (Concentration 0.111 μM) | IC50 (class symbols A/B/C) [nM] | IC50 [2] [nM] | other results
1 | CN1CCC[C@]1(c1cccc(Cl)c1)c1csc(C(=O)c2cncnc2N[C@@H]2C[C@H](COS(N)(=O)=O)[C@@H](O)C2)c1 (mixture of isomers) [I-227, [(1R,2S,4R)-4-{[5-({4-[(2S)-2-(3-chlorophenyl)-1-methylpyrrolidin-2-yl]-2-thienyl}carbonyl)pyrimidin-4-yl]amino}-2-hydroxycyclopentyl]methyl sulfamate and [(1R,2S,4R)-4-{[5-({4-[(2R)-2-(3-chlorophenyl)-1-methylpyrrolidin-2-yl]-2-thienyl}carbonyl)pyrimidin-4-yl]amino}-2-hydroxycyclopentyl]methyl sulfamate] | 23 | 100 to 1000 | – | –
2 | CN(C)[C@H](c1cccc(Cl)c1)c1csc(C(=O)c2cncnc2N[C@@H]2C[C@H](COS(N)(=O)=O)[C@@H](O)C2)c1 (single isomer, unassigned) [I-153a, [(1R,2S,4R)-4-{[5-({4-[(R)-(3-chlorophenyl)(dimethylamino)methyl]-2-thienyl}carbonyl)pyrimidin-4-yl]amino}-2-hydroxycyclopentyl]methyl sulfamate or [(1R,2S,4R)-4-{[5-({4-[(S)-(3-chlorophenyl)(dimethylamino)methyl]-2-thienyl}carbonyl)pyrimidin-4-yl]amino}-2-hydroxycyclopentyl]methyl sulfamate] | 30 | 100 to 1000 | – | –
3 | Cc1sc(C(=O)c2cncnc2N[C@@H]2C[C@H](COS(N)(=O)=O)[C@@H](O)C2)cc1[C@H]1OCOc2ccccc21 (mixture of isomers) [I-280, [(1R,2S,4R)-4-{[5-({4-[(4R)-4H-1,3-benzodioxin-4-yl]-5-methyl-2-thienyl}carbonyl)pyrimidin-4-yl]amino}-2-hydroxycyclopentyl]methyl sulfamate and [(1R,2S,4R)-4-{[5-({4-[(4S)-4H-1,3-benzodioxin-4-yl]-5-methyl-2-thienyl}carbonyl)pyrimidin-4-yl]amino}-2-hydroxycyclopentyl]methyl sulfamate] | – | – | < 10 | Percent Inhibition [1]: 98%
4 | Cc1sc(C(=O)c2cncnc2N[C@@H]2C[C@H](COS(N)(=O)=O)[C@@H](O)C2)cc1[C@@H]1OCCc2ccc(C#N)cc21.Cc1sc(C(=O)c2cncnc2N[C@@H]2C[C@H](COS(N)(=O)=O)[C@@H](O)C2)cc1[C@H]1OCCc2ccc(C#N)cc21 (mixture of isomers) [I-313, [(1R,2S,4R)-4-{[5-({4-[(1R)-7-cyano-3,4-dihydro-1H-isochromen-1-yl]-5-methyl-2-thienyl}carbonyl)pyrimidin-4-yl]amino}-2-hydroxycyclopentyl]methyl sulfamate and [(1R,2S,4R)-4-{[5-({4-[(1S)-7-cyano-3,4-dihydro-1H-isochromen-1-yl]-5-methyl-2-thienyl}carbonyl)pyrimidin-4-yl]amino}-2-hydroxycyclopentyl]methyl sulfamate] | – | – | < 10 | Percent Inhibition [1]: 94%
5 | COc1ccccc1CCc1csc(C(=O)c2cncnc2N[C@@H]2C[C@H](COS(N)(=O)=O)[C@@H](O)C2)c1 [I-183, [(1R,2S,4R)-2-Hydroxy-4-{[5-({4-[2-(2-methoxyphenyl)ethyl]-2-thienyl}carbonyl)pyrimidin-4-yl]amino}cyclopentyl]methyl sulfamate] | – | 10 to 100 | – | inhibition at 0.111 µM (Concentration 0.111 μM): 82%
6 | CN[C@H](c1cccc(Cl)c1)c1csc(C(=O)c2cncnc2N[C@@H]2C[C@H](COS(N)(=O)=O)[C@@H](O)C2)c1 (mixture of isomers) [I-47, [(1R,2S,4R)-4-{[5-({4-[(R)-(3-chlorophenyl)(methylamino)methyl]-2-thienyl}carbonyl)pyrimidin-4-yl]amino}-2-hydroxycyclopentyl]methyl sulfamate and [(1R,2S,4R)-4-{[5-({4-[(S)-(3-chlorophenyl)(methylamino)methyl]-2-thienyl}carbonyl)pyrimidin-4-yl]amino}-2-hydroxycyclopentyl]methyl sulfamate] | 97 | < 10 | – | –
7 | Cc1sc(C(=O)c2cncnc2N[C@@H]2C[C@H](COS(N)(=O)=O)[C@@H](O)C2)cc1[C@@]1(c2ccccc2)CCCO1 (mixture of isomers) [I-121, [(1R,2S,4R)-2-hydroxy-4-{[5-({5-methyl-4-[(2S)-2-phenyltetrahydrofuran-2-yl]-2-thienyl}carbonyl)pyrimidin-4-yl]amino}cyclopentyl]methyl sulfamate and [(1R,2S,4R)-2-hydroxy-4-{[5-({5-methyl-4-[(2R)-2-phenyltetrahydrofuran-2-yl]-2-thienyl}carbonyl)pyrimidin-4-yl]amino}cyclopentyl]methyl sulfamate] | 98 | < 10 | – | –
8 | Cc1sc(C(=O)c2cncnc2N[C@@H]2C[C@H](COS(N)(=O)=O)[C@@H](OC(=O)c3cccc(COP(=O)(O)O)c3)C2)cc1[C@@H]1OCCc2ccc(Cl)cc21 [I-345, (1S,2R,4R)-4-{[5-({4-[(1R)-7-chloro-3,4-dihydro-1H-isochromen-1-yl]-5-methyl-2-thienyl}carbonyl)pyrimidin-4-yl]amino}-2-[(sulfamoyloxy)methyl]cyclopentyl 3-[(phosphonooxy)methyl]benzoate] | – | – | 100 to 1000 | inhibition at 0.111 µM [1]: 5%
9 | NS(=O)(=O)OC[C@H]1C[C@@H](Nc2ncncc2C(=O)c2cc([C@@]3(c4cccc(Cl)c4)CCCN3)cs2)C[C@@H]1O (single isomer, unassigned) [I-38b, [(1R,2S,4R)-4-{[5-({4-[(2S)-2-(3-chlorophenyl)pyrrolidin-2-yl]-2-thienyl}carbonyl)pyrimidin-4-yl]amino}-2-hydroxycyclopentyl]methyl sulfamate or [(1R,2S,4R)-4-{[5-({4-[(2R)-2-(3-chlorophenyl)pyrrolidin-2-yl]-2-thienyl}carbonyl)pyrimidin-4-yl]amino}-2-hydroxycyclopentyl]methyl sulfamate] | 98 | < 10 | – | –
10 | NS(=O)(=O)OC[C@H]1C[C@@H](Nc2ncncc2C(=O)c2cc([C@@H]3NCCc4ccc(Br)cc43)c(Cl)s2)[C@H](O)[C@@H]1O (single isomer, unassigned) [I-259a, [(1R,2R,3S,4R)-4-{[5-({4-[(1R)-7-bromo-1,2,3,4-tetrahydroisoquinolin-1-yl]-5-chloro-2-thienyl}carbonyl)pyrimidin-4-yl]amino}-2,3-dihydroxycyclopentyl]methyl sulfamate or [(1R,2R,3S,4R)-4-{[5-({4-[(1S)-7-bromo-1,2,3,4-tetrahydroisoquinolin-1-yl]-5-chloro-2-thienyl}carbonyl)pyrimidin-4-yl]amino}-2,3-dihydroxycyclopentyl]methyl sulfamate] | 100 | < 10 | – | –
11 | NS(=O)(=O)OC[C@H]1C[C@@H](Nc2ncncc2C(=O)c2cc(Cc3cccc(Cl)c3)c([C@@H]3CCCO3)s2)C[C@@H]1O (single isomer, unassigned) [I-41b, [(1R,2S,4R)-4-{[5-({4-(3-chlorobenzyl)-5-[(2S)-tetrahydrofuran-2-yl]-2-thienyl}carbonyl)pyrimidin-4-yl]amino}-2-hydroxycyclopentyl]methyl sulfamate or [(1R,2S,4R)-4-{[5-({4-(3-chlorobenzyl)-5-[(2R)-tetrahydrofuran-2-yl]-2-thienyl}carbonyl)pyrimidin-4-yl]amino}-2-hydroxycyclopentyl]methyl sulfamate] | 98 | < 10 | – | –
12 | CN1Cc2cc(Cl)ccc2[C@@H]1c1csc(C(=O)c2cncnc2N[C@@H]2C[C@H](COS(N)(=O)=O)[C@@H](O)C2)c1 (mixture of isomers) [I-322, [(1R,2S,4R)-4-{[5-({4-[(1R)-5-chloro-2-methyl-2,3-dihydro-1H-isoindol-1-yl]-2-thienyl}carbonyl)pyrimidin-4-yl]amino}-2-hydroxycyclopentyl]methyl sulfamate and [(1R,2S,4R)-4-{[5-({4-[(1S)-5-chloro-2-methyl-2,3-dihydro-1H-isoindol-1-yl]-2-thienyl}carbonyl)pyrimidin-4-yl]amino}-2-hydroxycyclopentyl]methyl sulfamate] | – | – | 10 to 100 | Percent Inhibition [1]: 92%
13 | CC(N)(c1cccc(Cl)c1)c1csc(C(=O)c2cncnc2N[C@@H]2C[C@H](COS(N)(=O)=O)[C@@H](O)[C@H]2O)c1 (single isomer, unassigned) [I-8a, [(1R,2R,3S,4R)-4-{[5-({4-[(1S)-1-amino-1-(3-chlorophenyl)ethyl]-2-thienyl}carbonyl)pyrimidin-4-yl]amino}-2,3-dihydroxycyclopentyl]methyl sulfamate or [(1R,2R,3S,4R)-4-{[5-({4-[(1R)-1-amino-1-(3-chlorophenyl)ethyl]-2-thienyl}carbonyl)pyrimidin-4-yl]amino}-2,3-dihydroxycyclopentyl]methyl sulfamate] | 96 | < 10 | – | –
14 | Cc1sc(C(=O)c2cncnc2N[C@@H]2C[C@H](COS(N)(=O)=O)[C@@H](O)[C@H]2O)nc1Cc1cccc(Cl)c1 [I-352, {(1R,2R,3S,4R)-4-[(5-{[4-(3-chlorobenzyl)-5-methyl-1,3-thiazol-2-yl]carbonyl}pyrimidin-4-yl)amino]-2,3-dihydroxycyclopentyl}methyl sulfamate] | – | – | < 10 | inhibition at 0.111 µM [1]: 100%
15 | N#Cc1ccccc1OCc1csc(C(=O)c2cncnc2N[C@@H]2C[C@H](COS(N)(=O)=O)[C@@H](O)C2)c1 [I-124, [(1R,2S,4R)-4-{[5-({4-[(2-cyanophenoxy)methyl]-2-thienyl}carbonyl)pyrimidin-4-yl]amino}-2-hydroxycyclopentyl]methyl sulfamate] | – | < 10 | – | inhibition at 0.111 µM (Concentration 0.111 μM): 97%
